{
  "source": "PubChem BioAssay AID2060901",
  "about": "(Molecular Pharmacology Branch, DTP, NCI, 2025)",
  "test_system": "422866-222-R5-J1-PDC complex spheroids viability",
  "assay": "Anticancer human tumor 422866-222-R5-J1-PDC patient-derived pancreatic adenocarcinoma cell line growth inhibition [RAS]",
  "settings": "for pIC50: curve of first compound; for viability, T/C: stronger effect = lower value",
  "in_short": "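Multi-cell-type spheroids: tumor cells plus HUVEC endothelial cells and mesenchymal stem cells. RAS-pathway inhibitors were combined with targeted agents, each dosed in half-log steps down from clinical Cmax, or from 10 microM when Cmax was unknown.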",
  "key": {"[1]": {"settings": "second compound 0.0316 µM, first compound 0.0316 µM"}, "[2]": {"settings": "second compound 0.0316 µM, first compound 0.1 µM"}, "[3]": {"settings": "second compound 0.1 µM, first compound 0.0316 µM"}, "[4]": {"settings": "second compound 0.1 µM, first compound 0.1 µM"}, "[5]": {"settings": "second compound 0.316 µM, first compound 0.0316 µM"}, "[6]": {"settings": "second compound 0.316 µM, first compound 0.1 µM"}, "[7]": {"settings": "second compound 1 µM, first compound 0.0316 µM"}, "[8]": {"settings": "second compound 1 µM, first compound 0.1 µM"}},
  "note": "pIC50: −log10 of the molar value.",
  "data": [
    {"molecule": "CC(C)n1nc(-c2ccc3oc(N)nc3c2)c2c(N)ncnc21", "note": "+ C=CC(=O)N1CCN(c2nc(OCC3CCCN3C)nc3c(F)c(-c4nc(N)cc(C)c4C(F)(F)F)c(Cl)cc23)C(C)C1;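 further: spheroids exposed to compounds for 7 days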;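 on viability, T/C: 100% = DMSO vehicle control viability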", "values": [
      {"measurement": "pIC50", "setting": "second compound 0.00316 µM", "result": "> 9.50"},
      {"measurement": "pIC50", "setting": "second compound 0.01 µM", "result": "> 9.50"},
      {"measurement": "pIC50", "setting": "second compound 0.0316 µM", "result": "> 9.50"},
      {"measurement": "pIC50", "setting": "second compound 0.1 µM", "result": "> 9.50"},
      {"measurement": "pIC50", "setting": "second compound 0.316 µM", "result": "> 9.50"},
      {"measurement": "pIC50", "setting": "second compound 1 µM", "result": "> 9.50"},
      {"measurement": "viability, T/C", "setting": "second compound 0.00316 µM, first compound 0.000316 µM", "result": 34.9, "unit": "%"},
      {"measurement": "viability, T/C", "setting": "second compound 0.00316 µM, first compound 0.001 µM", "result": 35.1, "unit": "%"},
      {"measurement": "viability, T/C", "setting": "second compound 0.00316 µM, first compound 0.00316 µM", "result": 30.5, "unit": "%"},
      {"measurement": "viability, T/C", "setting": "second compound 0.00316 µM, first compound 0.01 µM", "result": 23.2, "unit": "%"},
      {"measurement": "viability, T/C", "setting": "second compound 0.00316 µM, first compound 0.0316 µM", "result": 18.3, "unit": "%"},
      {"measurement": "viability, T/C", "setting": "second compound 0.00316 µM, first compound 0.1 µM", "result": 14.8, "unit": "%"},
      {"measurement": "viability, T/C", "setting": "second compound 0.01 µM, first compound 0.000316 µM", "result": 30.3, "unit": "%"},
      {"measurement": "viability, T/C", "setting": "second compound 0.01 µM, first compound 0.001 µM", "result": 28.9, "unit": "%"},
      {"measurement": "viability, T/C", "setting": "second compound 0.01 µM, first compound 0.00316 µM", "result": 22.9, "unit": "%"},
      {"measurement": "viability, T/C", "setting": "second compound 0.01 µM, first compound 0.01 µM", "result": 19.9, "unit": "%"},
      {"measurement": "viability, T/C", "setting": "second compound 0.01 µM, first compound 0.0316 µM", "result": 14.3, "unit": "%"},
      {"measurement": "viability, T/C", "setting": "second compound 0.01 µM, first compound 0.1 µM", "result": 14.1, "unit": "%"},
      {"measurement": "viability, T/C", "setting": "second compound 0.0316 µM, first compound 0.000316 µM", "result": 29.9, "unit": "%"},
      {"measurement": "viability, T/C", "setting": "second compound 0.0316 µM, first compound 0.001 µM", "result": 26.5, "unit": "%"},
      {"measurement": "viability, T/C", "setting": "second compound 0.0316 µM, first compound 0.00316 µM", "result": 23.4, "unit": "%"},
      {"measurement": "viability, T/C", "setting": "second compound 0.0316 µM, first compound 0.01 µM", "result": 18.2, "unit": "%"},
      {"measurement": "viability, T/C", "setting": "[1]", "result": 14, "unit": "%"},
      {"measurement": "viability, T/C", "setting": "[2]", "result": 12.3, "unit": "%"},
      {"measurement": "viability, T/C", "setting": "second compound 0.1 µM, first compound 0.000316 µM", "result": 25.5, "unit": "%"},
      {"measurement": "viability, T/C", "setting": "second compound 0.1 µM, first compound 0.001 µM", "result": 22.9, "unit": "%"},
      {"measurement": "viability, T/C", "setting": "second compound 0.1 µM, first compound 0.00316 µM", "result": 18.1, "unit": "%"},
      {"measurement": "viability, T/C", "setting": "second compound 0.1 µM, first compound 0.01 µM", "result": 18.3, "unit": "%"},
      {"measurement": "viability, T/C", "setting": "[3]", "result": 16.8, "unit": "%"},
      {"measurement": "viability, T/C", "setting": "[4]", "result": 11.3, "unit": "%"},
      {"measurement": "viability, T/C", "setting": "second compound 0.316 µM, first compound 0.000316 µM", "result": 25, "unit": "%"},
      {"measurement": "viability, T/C", "setting": "second compound 0.316 µM, first compound 0.001 µM", "result": 20.9, "unit": "%"},
      {"measurement": "viability, T/C", "setting": "second compound 0.316 µM, first compound 0.00316 µM", "result": 20.6, "unit": "%"},
      {"measurement": "viability, T/C", "setting": "second compound 0.316 µM, first compound 0.01 µM", "result": 18.1, "unit": "%"},
      {"measurement": "viability, T/C", "setting": "[5]", "result": 13.6, "unit": "%"},
      {"measurement": "viability, T/C", "setting": "[6]", "result": 10.5, "unit": "%"},
      {"measurement": "viability, T/C", "setting": "second compound 1 µM, first compound 0.000316 µM", "result": 21.3, "unit": "%"},
      {"measurement": "viability, T/C", "setting": "second compound 1 µM, first compound 0.001 µM", "result": 20.2, "unit": "%"},
      {"measurement": "viability, T/C", "setting": "second compound 1 µM, first compound 0.00316 µM", "result": 24.6, "unit": "%"},
      {"measurement": "viability, T/C", "setting": "second compound 1 µM, first compound 0.01 µM", "result": 17.2, "unit": "%"},
      {"measurement": "viability, T/C", "setting": "[7]", "result": 17.3, "unit": "%"},
      {"measurement": "viability, T/C", "setting": "[8]", "result": 13.8, "unit": "%"}
    ]},
    {"molecule": "C[C@@H](NC(=O)c1ncnc(N)c1Cl)c1ncc(C(=O)Nc2cc(C(F)(F)F)c(Cl)cn2)s1", "note": "+ C#Cc1c(F)ccc2cc(O)cc(-c3ncc4c(N5CC6CCC(C5)N6)nc(OCC56CCCN5CC(F)C6)nc4c3F)c12", "values": [
      {"measurement": "pIC50", "setting": "second compound 0.0316 µM", "result": "< 5.00"},
      {"measurement": "pIC50", "setting": "second compound 0.1 µM", "result": "< 5.00"},
      {"measurement": "pIC50", "setting": "second compound 0.316 µM", "result": "< 5.00"},
      {"measurement": "pIC50", "setting": "second compound 1 µM", "result": "> 7.50"},
      {"measurement": "pIC50", "setting": "second compound 3.16 µM", "result": "> 7.50"},
      {"measurement": "pIC50", "setting": "second compound 10 µM", "result": "> 7.50"},
      {"measurement": "viability, T/C", "setting": "[1]", "result": 108, "unit": "%"},
      {"measurement": "viability, T/C", "setting": "[2]", "result": 114, "unit": "%"},
      {"measurement": "viability, T/C", "setting": "second compound 0.0316 µM, first compound 0.316 µM", "result": 106, "unit": "%"},
      {"measurement": "viability, T/C", "setting": "second compound 0.0316 µM, first compound 1 µM", "result": 117, "unit": "%"},
      {"measurement": "viability, T/C", "setting": "second compound 0.0316 µM, first compound 3.16 µM", "result": 89, "unit": "%"},
      {"measurement": "viability, T/C", "setting": "second compound 0.0316 µM, first compound 10 µM", "result": 57, "unit": "%"},
      {"measurement": "viability, T/C", "setting": "[3]", "result": 103, "unit": "%"},
      {"measurement": "viability, T/C", "setting": "[4]", "result": 88.3, "unit": "%"},
      {"measurement": "viability, T/C", "setting": "second compound 0.1 µM, first compound 0.316 µM", "result": 89.2, "unit": "%"},
      {"measurement": "viability, T/C", "setting": "second compound 0.1 µM, first compound 1 µM", "result": 74, "unit": "%"},
      {"measurement": "viability, T/C", "setting": "second compound 0.1 µM, first compound 3.16 µM", "result": 85.3, "unit": "%"},
      {"measurement": "viability, T/C", "setting": "second compound 0.1 µM, first compound 10 µM", "result": 58.3, "unit": "%"},
      {"measurement": "viability, T/C", "setting": "[5]", "result": 68.8, "unit": "%"},
      {"measurement": "viability, T/C", "setting": "[6]", "result": 67, "unit": "%"},
      {"measurement": "viability, T/C", "setting": "second compound 0.316 µM, first compound 0.316 µM", "result": 72.2, "unit": "%"},
      {"measurement": "viability, T/C", "setting": "second compound 0.316 µM, first compound 1 µM", "result": 55, "unit": "%"},
      {"measurement": "viability, T/C", "setting": "second compound 0.316 µM, first compound 3.16 µM", "result": 72.8, "unit": "%"},
      {"measurement": "viability, T/C", "setting": "second compound 0.316 µM, first compound 10 µM", "result": 48.1, "unit": "%"},
      {"measurement": "viability, T/C", "setting": "[7]", "result": 43, "unit": "%"},
      {"measurement": "viability, T/C", "setting": "[8]", "result": 44.5, "unit": "%"},
      {"measurement": "viability, T/C", "setting": "second compound 1 µM, first compound 0.316 µM", "result": 45.4, "unit": "%"},
      {"measurement": "viability, T/C", "setting": "second compound 1 µM, first compound 1 µM", "result": 39.7, "unit": "%"},
      {"measurement": "viability, T/C", "setting": "second compound 1 µM, first compound 3.16 µM", "result": 49.6, "unit": "%"},
      {"measurement": "viability, T/C", "setting": "second compound 1 µM, first compound 10 µM", "result": 46.7, "unit": "%"},
      {"measurement": "viability, T/C", "setting": "second compound 3.16 µM, first compound 0.0316 µM", "result": 29, "unit": "%"},
      {"measurement": "viability, T/C", "setting": "second compound 3.16 µM, first compound 0.1 µM", "result": 28.4, "unit": "%"},
      {"measurement": "viability, T/C", "setting": "second compound 3.16 µM, first compound 0.316 µM", "result": 40.1, "unit": "%"},
      {"measurement": "viability, T/C", "setting": "second compound 3.16 µM, first compound 1 µM", "result": 28.3, "unit": "%"},
      {"measurement": "viability, T/C", "setting": "second compound 3.16 µM, first compound 3.16 µM", "result": 33.1, "unit": "%"},
      {"measurement": "viability, T/C", "setting": "second compound 3.16 µM, first compound 10 µM", "result": 27.9, "unit": "%"},
      {"measurement": "viability, T/C", "setting": "second compound 10 µM, first compound 0.0316 µM", "result": 24.3, "unit": "%"},
      {"measurement": "viability, T/C", "setting": "second compound 10 µM, first compound 0.1 µM", "result": 22.6, "unit": "%"},
      {"measurement": "viability, T/C", "setting": "second compound 10 µM, first compound 0.316 µM", "result": 24.8, "unit": "%"},
      {"measurement": "viability, T/C", "setting": "second compound 10 µM, first compound 1 µM", "result": 24.4, "unit": "%"},
      {"measurement": "viability, T/C", "setting": "second compound 10 µM, first compound 3.16 µM", "result": 23.9, "unit": "%"},
      {"measurement": "viability, T/C", "setting": "second compound 10 µM, first compound 10 µM", "result": 24.5, "unit": "%"}
    ]}
  ]
}
